Earlier results on three compounds are cited in patent publication US20210369751A1, “BIOLOGICALLY ACTIVE COMPOSITIONS AND METHODS OF USING” (Mediwel Labs, LLC, priority 2020, published 2021).

“Also recorded” adds a separate entry of the source.

For data set [1] the following is noted: propranolol co-administered with 3 mg piperine.
For data set [2] the following is noted: 20 mg piperine daily for seven days before 150 mg theophylline.
For data set [3] the following is noted: 20 mg piperine daily for seven days before 300 mg phenytoin.
The target of the next data set is T1, CD38 (Homo sapiens, UniProt P28907).
T1 sequence (P28907 1-300): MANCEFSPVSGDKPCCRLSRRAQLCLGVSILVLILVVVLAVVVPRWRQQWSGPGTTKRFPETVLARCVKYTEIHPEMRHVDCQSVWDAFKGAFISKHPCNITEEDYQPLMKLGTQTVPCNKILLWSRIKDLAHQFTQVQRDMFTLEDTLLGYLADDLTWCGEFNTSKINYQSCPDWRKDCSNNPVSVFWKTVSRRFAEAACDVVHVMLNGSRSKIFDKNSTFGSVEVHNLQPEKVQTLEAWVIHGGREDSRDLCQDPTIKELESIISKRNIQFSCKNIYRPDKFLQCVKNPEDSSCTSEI
The conditions noted are these: purified pharmaceutical grade flavonoids; competitive antagonists.

In the case of `O=C(/C=C/C=C/c1ccc2c(c1)OCO2)N1CCCCC1` [piperine], in data set [1], the “elimination rate of propranolol with piperine” value is “did not affect the elimination rate; also recorded: without slowing down the drug elimination rate” and the “maximum blood concentration / blood levels of propranolol with piperine” value is “increased two fold; also recorded: doubling its blood levels”. Moreover, the “elimination rate of theophylline with piperine pretreatment” value in data set [2] is “significantly slowed down”. Also, the “maximum concentration of theophylline, pretreated with piperine versus drug alone” value in data set [2] (six healthy volunteers) is given as 1.5 times. Besides, in data set [3], the “elimination of phenytoin with piperine pretreatment” value is reported as “significantly slower elimination”, the “maximum concentration of phenytoin with piperine pretreatment” value is listed as “significantly higher concentrations” and the “time to maximum concentration of phenytoin with piperine pretreatment” value is listed as “shorter time”.

Take `O=c1c(O)c(-c2ccc(O)c(O)c2)oc2cc(O)cc(O)c12` [quercetin]: the “inhibition of CD38 and its catalytic activity” value at CD38 is reported as “potent inhibition”.

Consider `O=c1cc(-c2ccc(O)cc2)oc2cc(O)cc(O)c12` [apigenin], for which, at CD38, the “inhibition of CD38 and its catalytic activity” value was “potent inhibition”.
